Laboratory results published in ChEMBL document CHEMBL1129074, “Inhibitors of human immunodeficiency virus type 1 derived from gp41 transmembrane protein: structure--activity studies” (J Med Chem, 1996).
Peptide text beside a SMILES is read from it.

System: MT4
Assay: Inhibitory potency of gp41 fragment against HIV-1 induced cytopathic effect in MT-4 cell assay
Assay type: functional, cell-based
Conditions: Homo sapiens

First: CC[C@H](C)[C@H](NC(=O)CNC(=O)[C@H](Cc1c[nH]c2ccccc12)NC(=O)[C@@H](NC(=O)[C@@H](NC(=O)[C@H](CC(C)C)NC(=O)[C@H](CCC(N)=O)NC(=O)[C@H](CC(C)C)NC(=O)CNC(=O)CNC(=O)[C@H](CS)NC(C)=O)[C@@H](C)O)C(C)C)C(=O)N[C@@H](CCCCN)C(=O)N[C@@H](CCC(N)=O)C(=O)N[C@@H](CC(C)C)C(=O)N[C@@H](CCC(N)=O)C(=O)N[C@@H](C)C(=O)N[C@@H](CCCN=C(N)N)C(=O)N[C@H](C(=O)N[C@@H](CC(C)C)C(=O)N[C@@H](C)C(=O)N[C@H](C(=O)N[C@@H](CCC(=O)O)C(=O)N[C@@H](CCCN=C(N)N)C(=O)N[C@@H](Cc1ccc(O)cc1)C(=O)N[C@@H](CC(C)C)C(=O)N[C@@H](CCCCN)C(=O)N[C@@H](CC(=O)O)C(=O)N[C@@H](CCC(N)=O)C(=O)O)C(C)C)[C@@H](C)CC (Ac-CGGLQLTVWGIKQLQARILAVERYLKDQ-OH)
Second: CC[C@H](C)[C@H](NC(=O)CNC(=O)[C@H](Cc1c[nH]c2ccccc12)NC(=O)[C@@H](NC(=O)[C@@H](NC(=O)[C@H](CC(C)C)NC(=O)[C@H](CCC(N)=O)NC(=O)[C@H](CC(C)C)NC(=O)[C@H](CC(C)C)NC(=O)[C@H](Cc1c[nH]cn1)NC(=O)[C@H](CCC(N)=O)NC(=O)[C@H](CCC(N)=O)NC(=O)[C@H](C)NC(=O)[C@H](CCC(=O)O)NC(=O)[C@@H](NC(=O)[C@H](C)NC(=O)[C@H](CCCN=C(N)N)NC(=O)[C@H](CC(C)C)NC(=O)[C@H](CC(C)C)NC(=O)[C@H](CC(N)=O)NC(=O)[C@H](CC(N)=O)NC(=O)CNC(=O)CNC(=O)[C@H](CS)NC(C)=O)[C@@H](C)CC)[C@@H](C)O)C(C)C)C(=O)N[C@@H](CCCCN)C(=O)N[C@@H](CCC(N)=O)C(=O)O (Ac-CGGNNLLRAIEAQQHLLQLTVWGIKQ-OH)
The IC50 of the first is 4.1-fold higher: 60.5 µM for the first, 14.8 µM for the second.

Compared with `CC[C@H](C)[C@H](NC(C)=O)C(=O)N[C@@H](CCC(=O)O)C(=O)N[C@@H](C)C(=O)N[C@@H](CCC(N)=O)C(=O)N[C@@H](CCC(N)=O)C(=O)N[C@@H](Cc1c[nH]cn1)C(=O)N[C@@H](CC(C)C)C(=O)N[C@@H](CC(C)C)C(=O)N[C@@H](CCC(N)=O)C(=O)N[C@@H](CC(C)C)C(=O)N[C@H](C(=O)N[C@H](C(=O)N[C@@H](Cc1c[nH]c2ccccc12)C(=O)NCC(=O)N[C@H](C(=O)N[C@@H](CCCCN)C(=O)N[C@@H](CCC(N)=O)C(=O)N[C@@H](CC(C)C)C(=O)N[C@@H](CCC(N)=O)C(=O)N[C@@H](C)C(=O)N[C@@H](CCCN=C(N)N)C(=O)N[C@H](C(=O)N[C@@H](CC(C)C)C(=O)N[C@@H](C)C(=O)N[C@H](C(=O)N[C@@H](CCC(=O)O)C(=O)O)C(C)C)[C@@H](C)CC)[C@@H](C)CC)C(C)C)[C@@H](C)O` (Ac-IEAQQHLLQLTVWGIKQLQARILAVE-OH), `CC[C@H](C)[C@H](NC(=O)CNC(=O)[C@H](Cc1c[nH]c2ccccc12)NC(=O)[C@@H](NC(=O)[C@@H](NC(=O)[C@H](CC(C)C)NC(=O)[C@H](CCC(N)=O)NC(=O)[C@H](CC(C)C)NC(=O)[C@H](CC(C)C)NC(=O)[C@H](Cc1c[nH]cn1)NC(=O)[C@H](CCC(N)=O)NC(C)=O)[C@@H](C)O)C(C)C)C(=O)N[C@@H](CCCCN)C(=O)N[C@@H](CCC(N)=O)C(=O)N[C@@H](CC(C)C)C(=O)N[C@@H](CCC(N)=O)C(=O)N[C@@H](C)C(=O)N[C@@H](CCCN=C(N)N)C(=O)N[C@H](C(=O)N[C@@H](CC(C)C)C(=O)N[C@@H](C)C(=O)N[C@H](C(=O)N[C@@H](CCC(=O)O)C(=O)O)C(C)C)[C@@H](C)CC` (Ac-QHLLQLTVWGIKQLQARILAVE-OH) is 1.5-fold lower in IC50: 6.5 µM for the first, 4.3 µM for the second.

`CC[C@H](C)[C@H](NC(=O)CNC(=O)[C@H](Cc1c[nH]c2ccccc12)NC(=O)[C@@H](NC(=O)[C@@H](NC(=O)[C@H](CC(C)C)NC(=O)[C@H](CCC(N)=O)NC(=O)[C@H](CC(C)C)NC(=O)[C@H](CC(C)C)NC(=O)[C@H](Cc1c[nH]cn1)NC(=O)[C@H](C)NC(=O)[C@H](CCC(N)=O)NC(=O)[C@H](C)NC(=O)[C@H](CCC(=O)O)NC(=O)[C@@H](NC(=O)[C@H](C)NC(=O)[C@H](CCCN=C(N)N)NC(=O)[C@H](C)NC(=O)[C@H](CC(C)C)NC(=O)[C@H](CC(N)=O)NC(=O)[C@H](CC(N)=O)NC(C)=O)[C@@H](C)CC)[C@@H](C)O)C(C)C)C(=O)N[C@@H](CCCCN)C(=O)N[C@@H](CCC(N)=O)C(=O)N[C@@H](CC(C)C)C(=O)N[C@@H](CCC(N)=O)C(=O)N[C@@H](C)C(=O)N[C@@H](CCCN=C(N)N)C(=O)N[C@H](C(=O)N[C@@H](CC(C)C)C(=O)N[C@@H](C)C(=O)N[C@H](C(=O)N[C@@H](CCC(=O)O)C(=O)N[C@@H](CCCN=C(N)N)C(=O)N[C@@H](Cc1ccc(O)cc1)C(=O)N[C@@H](CC(C)C)C(=O)N[C@@H](CCCCN)C(=O)N[C@@H](CC(=O)O)C(=O)N[C@@H](CCC(N)=O)C(=O)O)C(C)C)[C@@H](C)CC` (Ac-NNLARAIEAQAHLLQLTVWGIKQLQARILAVERYLKDQ-OH) and `CC[C@H](C)[C@H](NC(=O)CNC(=O)[C@H](Cc1c[nH]c2ccccc12)NC(=O)[C@@H](NC(=O)[C@@H](NC(=O)[C@H](CC(C)C)NC(=O)[C@H](CCC(N)=O)NC(=O)[C@H](CC(C)C)NC(=O)[C@H](CC(C)C)NC(=O)[C@H](Cc1c[nH]cn1)NC(=O)[C@H](CCC(N)=O)NC(=O)[C@H](CCC(N)=O)NC(=O)[C@H](C)NC(=O)[C@H](CCC(=O)O)NC(=O)[C@@H](NC(=O)[C@H](C)NC(=O)[C@H](CCCN=C(N)N)NC(=O)[C@H](CC(C)C)NC(=O)[C@H](CC(C)C)NC(=O)[C@H](CC(N)=O)NC(=O)[C@@H](N)CC(N)=O)[C@@H](C)CC)[C@@H](C)O)C(C)C)C(=O)N[C@@H](CCCCN)C(=O)N[C@@H](CCC(N)=O)C(=O)N[C@@H](CC(C)C)C(=O)N[C@@H](CCC(N)=O)C(=O)N[C@@H](C)C(=O)N[C@@H](CCCN=C(N)N)C(=O)N[C@H](C(=O)N[C@@H](CC(C)C)C(=O)N[C@@H](C)C(=O)N[C@H](C(=O)N[C@@H](CCC(=O)O)C(=O)N[C@@H](CCCN=C(N)N)C(=O)N[C@@H](Cc1ccc(O)cc1)C(=O)N[C@@H](CC(C)C)C(=O)N[C@@H](CCCCN)C(=O)N[C@@H](CC(=O)O)C(=O)N[C@@H](CCC(N)=O)C(=O)O)C(C)C)[C@@H](C)CC` (H-NNLLRAIEAQQHLLQLTVWGIKQLQARILAVERYLKDQ-OH) are within 1.5-fold of each other in IC50: 3 µM for the first, 2.7 µM for the second.

Compared with `CC[C@H](C)[C@H](NC(=O)CNC(=O)[C@H](Cc1c[nH]c2ccccc12)NC(=O)[C@@H](NC(=O)[C@@H](NC(=O)[C@H](CC(C)C)NC(=O)[C@H](CCC(N)=O)NC(=O)[C@H](CC(C)C)NC(=O)[C@H](CC(C)C)NC(=O)CCCCCN)[C@@H](C)O)C(C)C)C(=O)N[C@@H](CCCCN)C(=O)N[C@@H](CCC(N)=O)C(=O)N[C@@H](CC(C)C)C(=O)N[C@@H](CCC(N)=O)C(=O)N[C@@H](C)C(=O)N[C@@H](CCCN=C(N)N)C(=O)N[C@H](C(=O)N[C@@H](CC(C)C)C(=O)O)[C@@H](C)CC` (HELM PEPTIDE1{[NCCCCCC(=O)[*:2]].L.L.Q.L.T.V.W.G.I.K.Q.L.Q.A.R.I.L}$$$$V2.0), `CC[C@H](C)[C@H](NC(=O)[C@H](CCCN=C(N)N)NC(=O)[C@H](C)NC(=O)[C@H](CCC(N)=O)NC(=O)[C@H](CC(C)C)NC(=O)[C@H](CCC(N)=O)NC(=O)CCCCCNC(=O)CNC(=O)[C@H](Cc1c[nH]c2ccccc12)NC(=O)[C@@H](NC(=O)[C@@H](NC(=O)[C@H](CC(C)C)NC(=O)[C@H](CCC(N)=O)NC(=O)[C@H](CC(C)C)NC(=O)[C@H](CC(C)C)NC(=O)[C@H](Cc1c[nH]cn1)NC(=O)[C@H](CCC(N)=O)NC(C)=O)[C@@H](C)O)C(C)C)C(=O)N[C@@H](CC(C)C)C(=O)N[C@@H](C)C(=O)N[C@H](C(=O)N[C@@H](CCC(=O)O)C(=O)O)C(C)C` (HELM PEPTIDE1{[ac].Q.H.L.L.Q.L.T.V.W.G.[O=C(CCCCCN[*:1])[*:2]].Q.L.Q.A.R.I.L.A.V.E}$$$$V2.0) is 3.8-fold higher in IC50: 10.4 µM for the first, 40 µM for the second.

First: CC[C@H](C)[C@H](NC(=O)CNC(=O)[C@H](Cc1c[nH]c2ccccc12)NC(=O)[C@@H](NC(=O)[C@@H](NC(=O)[C@H](CC(C)C)NC(=O)[C@H](CCC(N)=O)NC(=O)[C@H](CC(C)C)NC(=O)[C@H](CC(C)C)NC(=O)[C@H](Cc1c[nH]cn1)NC(=O)[C@H](CCC(N)=O)NC(=O)[C@H](CCC(N)=O)NC(=O)[C@H](C)NC(=O)[C@H](CCC(=O)O)NC(=O)[C@@H](NC(=O)[C@H](C)NC(=O)[C@H](CCCN=C(N)N)NC(=O)[C@H](CC(C)C)NC(=O)[C@H](CC(C)C)NC(=O)[C@H](CC(N)=O)NC(=O)[C@H](CC(N)=O)NC(C)=O)[C@@H](C)CC)[C@@H](C)O)C(C)C)C(=O)N[C@@H](CCCCN)C(=O)N[C@@H](CCC(N)=O)C(=O)N[C@@H](CC(C)C)C(=O)N[C@@H](CCC(N)=O)C(=O)N[C@@H](C)C(=O)N[C@@H](CCCN=C(N)N)C(=O)N[C@H](C(=O)N[C@@H](C)C(=O)N[C@@H](C)C(=O)N[C@@H](C)C(=O)NCCCCCC(=O)N[C@@H](C)C(=O)N[C@@H](C)C(=O)N[C@@H](C)C(=O)N[C@@H](C)C(=O)N[C@@H](CC(=O)O)C(=O)N[C@@H](CCCCN)C(=O)O)[C@@H](C)CC (HELM PEPTIDE1{[ac].N.N.L.L.R.A.I.E.A.Q.Q.H.L.L.Q.L.T.V.W.G.I.K.Q.L.Q.A.R.I.A.A.A.[O=C(CCCCCN[*:1])[*:2]].A.A.A.A.D.K}$$$$V2.0)
Second: CC[C@H](C)[C@H](NC(=O)[C@H](CCCN=C(N)N)NC(=O)[C@H](C)NC(=O)[C@H](CCC(N)=O)NC(=O)[C@H](CC(C)C)NC(=O)[C@H](CCC(N)=O)NC(=O)CCCCCNC(=O)CCCCCNC(=O)CNC(=O)[C@H](Cc1c[nH]c2ccccc12)NC(=O)[C@@H](NC(=O)[C@@H](NC(=O)[C@H](CC(C)C)NC(=O)[C@H](CCC(N)=O)NC(=O)[C@H](CC(C)C)NC(=O)[C@H](CC(C)C)NC(=O)[C@H](Cc1c[nH]cn1)NC(=O)[C@H](CCC(N)=O)NC(C)=O)[C@@H](C)O)C(C)C)C(=O)N[C@@H](CC(C)C)C(=O)N[C@@H](C)C(=O)N[C@H](C(=O)N[C@@H](CCC(=O)O)C(=O)O)C(C)C (HELM PEPTIDE1{[ac].Q.H.L.L.Q.L.T.V.W.G.[O=C(CCCCCN[*:1])[*:2]].[O=C(CCCCCN[*:1])[*:2]].Q.L.Q.A.R.I.L.A.V.E}$$$$V2.0)
The IC50 of the first is 10-fold lower: 6.3 µM for the first, 65.7 µM for the second.

With `CC[C@H](C)[C@H](NC(=O)[C@H](CCCN=C(N)N)NC(=O)[C@H](C)NC(=O)[C@H](CCC(N)=O)NC(=O)[C@H](CC(C)C)NC(=O)[C@H](CCC(N)=O)NC(=O)CCCCCNC(=O)[C@H](Cc1c[nH]c2ccccc12)NC(=O)[C@@H](NC(=O)[C@@H](NC(=O)[C@H](CC(C)C)NC(=O)[C@H](CCC(N)=O)NC(=O)[C@H](CC(C)C)NC(=O)[C@H](CC(C)C)NC(=O)[C@H](Cc1c[nH]cn1)NC(=O)[C@H](CCC(N)=O)NC(C)=O)[C@@H](C)O)C(C)C)C(=O)N[C@@H](CC(C)C)C(=O)N[C@@H](C)C(=O)N[C@H](C(=O)N[C@@H](CCC(=O)O)C(=O)O)C(C)C` (HELM PEPTIDE1{[ac].Q.H.L.L.Q.L.T.V.W.[O=C(CCCCCN[*:1])[*:2]].Q.L.Q.A.R.I.L.A.V.E}$$$$V2.0) the IC50 was 40 µM.
